Several values for one entry are separate records, joined by “and”; a condition that tells them apart may be missing. Equal entries are not always repeated.
Test: molar heat capacity at constant pressure
Details: 101.33 kPa, Crystal 1, Small (less than 1 g) adiabatic calorimetry

O=P([O-])([O-])[O-].[Cs+].[Mg+2] [caesium-magnesium monophosphate]
Details	molar heat capacity at constant pressure
292.8 K	121 J/K/mol
294.9 K	121.5 J/K/mol
297 K	121.9 J/K/mol
298.15 K	122.1 J/K/mol
298.84 K	122.3 J/K/mol
300 K	122.6 J/K/mol
300.7 K	122.7 J/K/mol
303.3 K	123.3 J/K/mol
305.9 K	123.9 J/K/mol
308 K	124.4 J/K/mol
310 K	124.8 J/K/mol
310.1 K	124.8 J/K/mol
312.4 K	125.4 J/K/mol
314.7 K	125.9 J/K/mol
316.4 K	126.2 J/K/mol
318 K	126.5 J/K/mol
320 K	127 J/K/mol
321.1 K	127.2 J/K/mol
324.2 K	128 J/K/mol
325.3 K	128.2 J/K/mol
326.4 K	128.5 J/K/mol
329.66 K	129.1 J/K/mol
330 K	129.2 J/K/mol
330.5 K	128.9 J/K/mol
332.91 K	129.7 J/K/mol
333.99 K	129.9 J/K/mol
334.4 K	129.7 J/K/mol
335.08 K	130.1 J/K/mol
338.2 K	130.6 J/K/mol
338.3 K	130.5 J/K/mol
340 K	131 J/K/mol
341.8 K	131.2 J/K/mol
342.2 K	131.4 J/K/mol
343.4 K	131.5 J/K/mol
345.83 K	132 J/K/mol
346.1 K	132.2 J/K/mol
348.25 K	132.5 J/K/mol
350 K	133 J/K/mol and 132.7 J/K/mol
350.05 K	132.7 J/K/mol
351.85 K	133 J/K/mol
353.9 K	133 J/K/mol
357.8 K	133.9 J/K/mol
360 K	135 J/K/mol
361.7 K	134.7 J/K/mol
365.5 K	135.5 J/K/mol
369.2 K	136.4 J/K/mol
370 K	136 J/K/mol
372.9 K	136.4 J/K/mol
376.6 K	137.2 J/K/mol
380 K	138 J/K/mol
380.2 K	138 J/K/mol
383.7 K	138 J/K/mol
387.2 K	138.9 J/K/mol
390 K	140 J/K/mol
390.7 K	139.7 J/K/mol
394.2 K	140.5 J/K/mol
397.7 K	140.5 J/K/mol
400 K	141 J/K/mol
401.3 K	141.3 J/K/mol
404.8 K	141.3 J/K/mol
408.5 K	142.2 J/K/mol
410 K	142 J/K/mol
412.1 K	143 J/K/mol
415.8 K	143 J/K/mol
419.6 K	143.8 J/K/mol
420 K	144 J/K/mol
423.3 K	144.7 J/K/mol
427 K	145.5 J/K/mol
430 K	146 J/K/mol
430.6 K	145.5 J/K/mol
434.3 K	146.3 J/K/mol
437.9 K	146.3 J/K/mol
440 K	147 J/K/mol
441.6 K	147.2 J/K/mol
445.2 K	148 J/K/mol
448.8 K	148 J/K/mol
450 K	148 J/K/mol
452.5 K	148.8 J/K/mol
456.1 K	148.8 J/K/mol
459.8 K	149.7 J/K/mol
460 K	150 J/K/mol
463.4 K	150.5 J/K/mol
467.1 K	150.5 J/K/mol
470 K	151 J/K/mol
470.7 K	151.3 J/K/mol
474.4 K	151.3 J/K/mol
478.1 K	152.2 J/K/mol
480 K	152 J/K/mol
481.8 K	152.2 J/K/mol
485.4 K	153 J/K/mol
489.1 K	153.8 J/K/mol
490 K	154 J/K/mol
492.7 K	153.8 J/K/mol
496.4 K	154.6 J/K/mol
500 K	154.6 J/K/mol and 155 J/K/mol
503.7 K	155.5 J/K/mol
507.3 K	155.5 J/K/mol
510 K	156 J/K/mol
511 K	156.3 J/K/mol
514.6 K	156.3 J/K/mol
518.3 K	157.1 J/K/mol
520 K	157 J/K/mol
521.8 K	157.1 J/K/mol
525.4 K	158 J/K/mol
529 K	158 J/K/mol
530 K	159 J/K/mol
532.6 K	158.8 J/K/mol
536.1 K	158.8 J/K/mol
539.8 K	159.6 J/K/mol
540 K	160 J/K/mol
543.3 K	159.6 J/K/mol
546.9 K	160.5 J/K/mol
550 K	160 J/K/mol
550.5 K	160.5 J/K/mol
554.1 K	161.3 J/K/mol
557.7 K	161.3 J/K/mol
560 K	162 J/K/mol
561.4 K	162.1 J/K/mol
565 K	162.1 J/K/mol
568.7 K	163 J/K/mol
570 K	163 J/K/mol
572.4 K	163 J/K/mol
576.1 K	163.8 J/K/mol
579.8 K	163.8 J/K/mol
580 K	164 J/K/mol
583.4 K	164.6 J/K/mol
587.1 K	164.6 J/K/mol
590 K	165 J/K/mol
590.7 K	165.5 J/K/mol
594.3 K	165.5 J/K/mol
597.9 K	166.3 J/K/mol
600 K	166 J/K/mol
603.4 K	166.3 J/K/mol
607 K	167.1 J/K/mol
610 K	167 J/K/mol
610.6 K	167.1 J/K/mol
614.2 K	168 J/K/mol
617.7 K	168 J/K/mol
620 K	168 J/K/mol
621.4 K	168 J/K/mol
625 K	168.8 J/K/mol
628.6 K	168.8 J/K/mol
630 K	169 J/K/mol
632.3 K	169.6 J/K/mol
636 K	169.6 J/K/mol
639.7 K	170.4 J/K/mol
640 K	170 J/K/mol
643.3 K	170.4 J/K/mol
648.9 K	171.3 J/K/mol
650 K	171 J/K/mol

From the NIST ThermoML archive (doi:10.1016/j.jct.2007.11.001)
